27 compounds from US7846959B2, “Raf modulators and methods of use” (Exelixis, Inc., priority 2004, dated 2010) can be followed below.

Like-named read-outs stand apart in the source and are kept apart here.

One experiment concerns the target B-Raf (Homo sapiens, UniProt P15056). Nature of the experiment: Luciferase-coupled chemiluminescence kinase assay (ATP consumption), B-Raf. Type of experiment: biochemical. In a few lines:
(§1)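 Enzyme ([…]) was pre-incubated with compound for 30 min at room temperature in 20 mM Tris pH 7.5, 10 mM MgCl2, 0.03% TX-100, 1 mM DTT. ATP was added and the reaction ran 3 h at ambient temperature. Remaining ATP was read by luciferase-luciferin chemiluminescence, giving IC50 values.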

A further experiment addresses c-Raf (Homo sapiens, UniProt P04049). Nature of the experiment: Luciferase-coupled chemiluminescence kinase assay (ATP consumption), c-Raf. It counts as biochemical. In a few lines:
as §1

Where [1] appears, read: read-out: bRaf (inhibition indicated as IC50).
The mark [2] stands for this setting: read-out: cRaf-1 (inhibition indicated as IC50).

Sequence of B-Raf (P15056 whole entry): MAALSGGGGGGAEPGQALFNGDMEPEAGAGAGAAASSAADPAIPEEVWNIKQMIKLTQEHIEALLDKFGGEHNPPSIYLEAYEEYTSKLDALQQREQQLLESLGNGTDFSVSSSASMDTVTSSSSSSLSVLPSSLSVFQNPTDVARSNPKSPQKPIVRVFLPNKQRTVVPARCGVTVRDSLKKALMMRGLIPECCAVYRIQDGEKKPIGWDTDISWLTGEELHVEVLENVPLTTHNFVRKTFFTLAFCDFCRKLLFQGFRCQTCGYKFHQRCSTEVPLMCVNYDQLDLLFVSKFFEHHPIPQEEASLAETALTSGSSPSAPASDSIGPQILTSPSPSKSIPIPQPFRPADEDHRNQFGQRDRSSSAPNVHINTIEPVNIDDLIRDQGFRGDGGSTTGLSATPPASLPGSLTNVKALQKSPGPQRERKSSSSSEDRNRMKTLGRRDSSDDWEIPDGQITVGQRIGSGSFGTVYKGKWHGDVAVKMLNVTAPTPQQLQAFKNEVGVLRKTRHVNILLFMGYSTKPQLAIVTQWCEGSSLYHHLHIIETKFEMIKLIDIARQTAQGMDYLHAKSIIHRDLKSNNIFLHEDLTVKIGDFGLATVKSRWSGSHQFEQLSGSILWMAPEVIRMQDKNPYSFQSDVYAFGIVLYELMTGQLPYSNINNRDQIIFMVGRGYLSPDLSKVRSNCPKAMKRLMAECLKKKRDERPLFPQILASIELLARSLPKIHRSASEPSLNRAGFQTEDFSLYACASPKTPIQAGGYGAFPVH
Sequence of c-Raf (P04049 whole entry): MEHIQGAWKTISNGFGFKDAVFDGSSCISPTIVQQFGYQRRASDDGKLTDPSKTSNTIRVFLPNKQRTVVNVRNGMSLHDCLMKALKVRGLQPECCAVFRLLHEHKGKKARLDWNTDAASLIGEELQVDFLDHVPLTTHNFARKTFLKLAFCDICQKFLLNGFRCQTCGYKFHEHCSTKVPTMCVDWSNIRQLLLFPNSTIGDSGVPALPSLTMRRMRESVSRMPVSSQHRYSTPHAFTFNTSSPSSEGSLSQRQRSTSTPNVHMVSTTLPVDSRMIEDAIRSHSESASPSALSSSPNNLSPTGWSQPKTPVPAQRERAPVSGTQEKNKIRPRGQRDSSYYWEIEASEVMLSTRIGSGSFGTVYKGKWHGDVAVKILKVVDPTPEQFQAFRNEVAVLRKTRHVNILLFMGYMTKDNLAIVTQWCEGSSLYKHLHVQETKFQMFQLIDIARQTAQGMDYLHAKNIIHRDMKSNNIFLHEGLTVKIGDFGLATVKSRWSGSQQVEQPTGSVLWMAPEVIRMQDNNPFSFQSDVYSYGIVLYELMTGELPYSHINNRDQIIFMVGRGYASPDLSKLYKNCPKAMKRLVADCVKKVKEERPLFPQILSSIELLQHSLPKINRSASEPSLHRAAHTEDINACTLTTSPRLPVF

As a reminder, the IC50 is the concentration that inhibits the measured activity by half. On to `COc1ccc(Cl)cc1N1C(=O)c2ccccc2C1(O)c1ccc2c(c1)NC(=O)CO2` (stereo not drawn) [Entry 63, 6-{2-[5-chloro-2-(methyloxy)phenyl]-1-hydroxy-3-oxo-2,3-dihydro-1H-isoindol-1-yl}-2H-1,4-benzoxazin-3(4H)-one], for which the half-maximal inhibitory concentration (IC50) was 1000 to 10000 nM on B-Raf (read-out: bRaf IC50) and ≥ 10000 nM at c-Raf (read-out: cRaf-1 IC50).
The corresponding values for `O=C1COc2ccc(C3(O)c4ccccc4C(=O)N3Cc3cccc([N+](=O)[O-])c3)cc2N1` (stereo not drawn) [Entry 52, 6-{1-hydroxy-2-[(3-nitrophenyl)methyl]-3-oxo-2,3-dihydro-1H-isoindol-1-yl}-2H-1,4-benzoxazin-3(4H)-one] are 1000 to 10000 nM and 1000 to 10000 nM.
In the same order, the values of `Nc1cccc(N2C(=O)c3ccccc3C2(O)c2ccc3c(c2)NC(=O)CO3)c1` (stereo not drawn) [Entry 67, 6-[2-(3-aminophenyl)-1-hydroxy-3-oxo-2,3-dihydro-1H-isoindol-1-yl]-2H-1,4-benzoxazin-3(4H)-one] are 100 to 1000 nM and 100 to 1000 nM.
For the compound `O=C1c2c(F)ccc(F)c2C(O)(c2ccc3[nH]c(Nc4ncccn4)nc3c2)N1c1cccc(Cl)c1F` (stereo not drawn) [Entry 379, 2-(3-chloro-2-fluorophenyl)-4,7-difluoro-3-hydroxy-3-[2-(pyrimidin-2-ylamino)-1H-benzimidazol-5-yl]-2,3-dihydro-1H-isoindol-1-one], the half-inhibitory concentration (IC50) on B-Raf (setting [1]) and on c-Raf (setting [2]) was < 100 nM each time.
For the compound `COC(=O)Nc1nc2cc(C3(O)c4ccccc4C(=O)N3c3ccc(F)c(Br)c3)ccc2[nH]1` (stereo not drawn) [Entry 214, methyl {5-[2-(3-bromo-4-fluorophenyl)-1-hydroxy-3-oxo-2,3-dihydro-1H-isoindol-1-yl]-1H-benzimidazol-2-yl}carbamate], the IC50 on B-Raf (read-out: bRaf IC50) and at c-Raf (read-out: cRaf-1 IC50) was < 100 nM in each case.
Consider `CC(C)(C)OC(=O)N1CCC(COC(=O)Nc2nc3cc(C4(O)c5ccccc5C(=O)N4Cc4ccccc4)ccc3[nH]2)CC1` (stereo not drawn) [Entry 315, 1,1-dimethylethyl 4-({[({5-[1-hydroxy-3-oxo-2-(phenylmethyl)-2,3-dihydro-1H-isoindol-1-yl]-1H-benzimidazol-2-yl}amino)carbonyl]oxy}methyl)piperidine-1-carboxylate], for which the IC50 on B-Raf (setting [1]) and on c-Raf (setting [2]) was 100 to 1000 nM throughout.
In the case of `COC(=O)Nc1nc2cc(C3(O)c4ccccc4C(=O)N3c3cc(F)ccc3F)ccc2[nH]1` (stereo not drawn) [Entry 168, methyl {5-[2-(2,5-difluorophenyl)-1-hydroxy-3-oxo-2,3-dihydro-1H-isoindol-1-yl]-1H-benzimidazol-2-yl}carbamate], the IC50 at B-Raf (read-out: bRaf IC50) and at c-Raf (read-out: cRaf-1 IC50) was < 100 nM each time.
On to `COC(=O)Nc1nc2cc(C3(O)c4ccccc4C(=O)N3c3ccc(Cl)c(Cl)c3)ccc2[nH]1` (stereo not drawn) [Entry 177, methyl {5-[2-(3,4-dichlorophenyl)-1-hydroxy-3-oxo-2,3-dihydro-1H-isoindol-1-yl]-1H-benzimidazol-2-yl}carbamate], for which the IC50 at B-Raf (read-out: bRaf IC50) and at c-Raf (read-out: cRaf-1 IC50) was < 100 nM each time.
On to `COC(=O)Nc1nc2cc(C3(O)c4ccccc4C(=O)N3CC3CCNC3)ccc2[nH]1` (stereo not drawn) [Entry 301, methyl {5-[1-hydroxy-3-oxo-2-(pyrrolidin-3-ylmethyl)-2,3-dihydro-1H-isoindol-1-yl]-1H-benzimidazol-2-yl}carbamate], for which the IC50 on B-Raf (setting [1]) and on c-Raf (setting [2]) was 1000 to 10000 nM each time.
Regarding `COC(=O)Nc1nc2cc(C3(O)c4ccccc4C(=O)N3c3cc(Cl)ccc3C)ccc2[nH]1` (stereo not drawn) [Entry 285, methyl {5-[2-(5-chloro-2-methylphenyl)-1-hydroxy-3-oxo-2,3-dihydro-1H-isoindol-1-yl]-1H-benzimidazol-2-yl}carbamate], the half-maximal inhibitory concentration (IC50) at B-Raf (setting [1]) and on c-Raf (setting [2]) was < 100 nM throughout.
As to `COC(=O)Nc1nc2cc(C3(O)c4ccccc4C(=O)N3C(C)c3ccc(Br)s3)ccc2[nH]1` (stereo not drawn) [Entry 249, methyl (5-{2-[1-(5-bromo-2-thienyl)ethyl]-1-hydroxy-3-oxo-2,3-dihydro-1H-isoindol-1-yl}-1H-benzimidazol-2-yl)carbamate], the half-maximal inhibitory concentration (IC50) on B-Raf (read-out: bRaf IC50) and at c-Raf (read-out: cRaf-1 IC50) was < 100 nM throughout.
`COC(=O)Nc1nc2cc(C3(O)c4ccccc4C(=O)N3c3cc(F)cc(F)c3)ccc2[nH]1` (stereo not drawn) [Entry 156, methyl {5-[2-(3,5-difluorophenyl)-1-hydroxy-3-oxo-2,3-dihydro-1H-isoindol-1-yl]-1H-benzimidazol-2-yl}carbamate]: the IC50 on B-Raf (read-out: bRaf IC50) and at c-Raf (read-out: cRaf-1 IC50) was 100 to 1000 nM throughout.
Take `O=C1COc2ccc(C3(O)c4ccccc4C(=O)N3c3cccc(F)c3)cc2N1` (stereo not drawn) [Entry 39, 6-[2-(3-fluorophenyl)-1-hydroxy-3-oxo-2,3-dihydro-1H-isoindol-1-yl]-2H-1,4-benzoxazin-3(4H)-one]: the IC50 on B-Raf (read-out: bRaf IC50) was 1000 to 10000 nM; on c-Raf (read-out: cRaf-1 IC50), 100 to 1000 nM.
In the case of `COC(=O)Nc1nc2cc(C3(O)c4ccccc4C(=O)N3CC3CCCN3)ccc2[nH]1` (stereo not drawn) [Entry 300, methyl {5-[1-hydroxy-3-oxo-2-(pyrrolidin-2-ylmethyl)-2,3-dihydro-1H-isoindol-1-yl]-1H-benzimidazol-2-yl}carbamate], the half-maximal inhibitory concentration (IC50) at B-Raf (setting [1]) and at c-Raf (setting [2]) was 1000 to 10000 nM throughout.
`COC(=O)Nc1nc2cc(C3(O)c4ccccc4C(=O)N3c3ccc(F)c(Cl)c3)ccc2[nH]1` (stereo not drawn) [Entry 194, methyl {5-[2-(3-chloro-4-fluorophenyl)-1-hydroxy-3-oxo-2,3-dihydro-1H-isoindol-1-yl]-1H-benzimidazol-2-yl}carbamate]: the IC50 at B-Raf (read-out: bRaf IC50) and at c-Raf (read-out: cRaf-1 IC50) was < 100 nM each time.
Take `CN1CCC(CCOC(=O)Nc2nc3cc(C4(O)c5ccccc5C(=O)N4c4cccc(Cl)c4F)ccc3[nH]2)CC1` (stereo not drawn) [Entry 317, 2-(1-methylpiperidin-4-yl)ethyl {5-[2-(3-chloro-2-fluorophenyl)-1-hydroxy-3-oxo-2,3-dihydro-1H-isoindol-1-yl]-1H-benzimidazol-2-yl}carbamate]: the half-inhibitory concentration (IC50) at B-Raf (setting [1]) and at c-Raf (setting [2]) was < 100 nM throughout.
As to `O=C1c2ccccc2C(O)(c2ccc3[nH]c(NC(=O)C(O)(C(F)(F)F)C(F)(F)F)nc3c2)N1Cc1ccccc1` (stereo not drawn) [Entry 208, 3,3,3-trifluoro-2-hydroxy-N-{5-[1-hydroxy-3-oxo-2-(phenylmethyl)-2,3-dihydro-1H-isoindol-1-yl]-1H-benzimidazol-2-yl}-2-(trifluoromethyl)propanamide], the IC50 on B-Raf (read-out: bRaf IC50) and on c-Raf (read-out: cRaf-1 IC50) was 1000 to 10000 nM throughout.
Turning to `C[C@H](c1ccccc1)N1C(=O)c2ccccc2C1(O)c1ccc2[nH]c(NC(=O)OCc3ccccc3)nc2c1` (stereo partly drawn) [Entry 150, phenylmethyl (5-{1-hydroxy-3-oxo-2-[(1R)-1-phenylethyl]-2,3-dihydro-1H-isoindol-1-yl}-1H-benzimidazol-2-yl)carbamate], the half-inhibitory concentration (IC50) at B-Raf (read-out: bRaf IC50) and at c-Raf (read-out: cRaf-1 IC50) was < 100 nM in each case.
On to `C#Cc1cccc(N2C(=O)c3ccccc3C2(O)c2ccc3[nH]c(NC(=O)OC)nc3c2)c1F` (stereo not drawn) [Entry 282, methyl {5-[2-(3-ethynyl-2-fluorophenyl)-1-hydroxy-3-oxo-2,3-dihydro-1H-isoindol-1-yl]-1H-benzimidazol-2-yl}carbamate], for which the IC50 on B-Raf (setting [1]) and on c-Raf (setting [2]) was < 100 nM throughout.
With `COC(=O)Nc1nc2cc(C3(O)c4ccccc4C(=O)N3c3ccc(OC)cc3)ccc2[nH]1` (stereo not drawn) [Entry 128, methyl (5-{1-hydroxy-2-[4-(methyloxy)phenyl]-3-oxo-2,3-dihydro-1H-isoindol-1-yl}-1H-benzimidazol-2-yl)carbamate], the IC50 at B-Raf (read-out: bRaf IC50) and on c-Raf (read-out: cRaf-1 IC50) was 1000 to 10000 nM each time.
In the case of `C#Cc1cccc(N2C(=O)c3ccccc3C2c2ccc3[nH]c(NC(=O)OC)nc3c2)c1F` (stereo not drawn) [Entry 377, methyl {5-[2-(3-ethynyl-2-fluorophenyl)-3-oxo-2,3-dihydro-1H-isoindol-1-yl]-1H-benzimidazol-2-yl}carbamate], the 50% inhibitory concentration (IC50) on B-Raf (setting [1]) and on c-Raf (setting [2]) was < 100 nM throughout.
Turning to `C=Cc1cccc(NC(=O)c2ccccc2C(=O)c2ccc3nc(NC(=O)OC)[nH]c3c2)c1F` [Entry 418, methyl {6-[(2-{[(3-ethenyl-2-fluorophenyl)amino]carbonyl}phenyl)carbonyl]-1H-benzimidazol-2-yl}carbamate], the IC50 on B-Raf (setting [1]) and at c-Raf (setting [2]) was < 100 nM each time.
Turning to `O=C(Nc1nc2cc(C3(O)c4ccccc4C(=O)N3Cc3ccccc3)ccc2[nH]1)OC1CCCCC1` (stereo not drawn) [Entry 185, cyclohexyl {5-[1-hydroxy-3-oxo-2-(phenylmethyl)-2,3-dihydro-1H-isoindol-1-yl]-1H-benzimidazol-2-yl}carbamate], the concentration for half-maximal inhibition (IC50) at B-Raf (read-out: bRaf IC50) and at c-Raf (read-out: cRaf-1 IC50) was 100 to 1000 nM throughout.
`CCOC(=O)Nc1nc2cc(C(=O)c3ccccc3C(=O)OCc3ccccc3)ccc2o1` [Entry 350, phenylmethyl 2-[(2-{[(ethyloxy)carbonyl]amino}-1,3-benzoxazol-5-yl)carbonyl]benzoate]: the IC50 at B-Raf (setting [1]) and on c-Raf (setting [2]) was 1000 to 10000 nM in each case.
`O=C(Nc1nc2ccc(C3(O)c4ccccc4C(=O)N3c3ccc(F)cc3)cc2[nH]1)OCCCN1CCCCC1` (stereo not drawn) [Entry 279, 3-piperidin-1-ylpropyl {6-[2-(4-fluorophenyl)-1-hydroxy-3-oxo-2,3-dihydro-1H-isoindol-1-yl]-1H-benzimidazol-2-yl}carbamate]: the 50% inhibitory concentration (IC50) at B-Raf (setting [1]) is 100 to 1000 nM; at c-Raf (setting [2]), < 100 nM.
`COC(=O)Nc1nc2ccc(C3(O)c4cc(Cl)c(Cl)cc4C(=O)N3c3cccc(Br)c3)cc2[nH]1` (stereo not drawn) [Entry 266, methyl {6-[2-(3-bromophenyl)-5,6-dichloro-1-hydroxy-3-oxo-2,3-dihydro-1H-isoindol-1-yl]-1H-benzimidazol-2-yl}carbamate]: the 50% inhibitory concentration (IC50) on B-Raf (read-out: bRaf IC50) and on c-Raf (read-out: cRaf-1 IC50) was 1000 to 10000 nM in each case.
`CSc1ccccc1CN1C(=O)c2ccccc2C1(O)c1ccc2c(c1)NC(=O)CO2` (stereo not drawn) [Entry 57, 6-(1-hydroxy-2-{[2-(methylthio)phenyl]methyl}-3-oxo-2,3-dihydro-1H-isoindol-1-yl)-2H-1,4-benzoxazin-3(4H)-one]: the half-maximal inhibitory concentration (IC50) at B-Raf (read-out: bRaf IC50) and on c-Raf (read-out: cRaf-1 IC50) was ≥ 10000 nM in each case.
